In patent US10421722B2, “Sulfur-containing compounds targeting vesicular acetylcholine transporter” (Washington University, priority 2016, dated 2019):
Read-outs that look alike come from different tables or passages of the source.

Columns and labels:
human VAChT = human VAChT (Homo sapiens (Human), UniProt Q16572); assay: VAChT binding, competition against [3H]Vesamicol; conditions: oxalate form, expressed human VAChT, mean ± SEM
Method: (§1) In vitro binding studies were performed to measure the affinities to the VAChT and σ1 and σ2 receptors. VAChT binding was assayed using membrane homogenate from PC12 cells which overexpress human VAChT.^8 The σ1 and σ2 binding affinities were assayed in […], respectively.
The test compounds were assayed in increments of 10-fold from 0.1 to 10,000 nM concentration. The surfaces of containers were pre-coated with Sigmacote (Sigma-Aldrich, Mo.). Samples containing 200 μg postnuclear supernatant in 200 μL of 110 mM potassium tartrate, 20 mM HEPES (pH 7.4 with KOH), 1 mM dithiothreitol, and 0.02% sodium azide were incubated at 22° C. for 24 h. A volume of 90 μL was filtered in duplicate through GF/F glass fiber filters coated with polyethylenimine and washed. Filter-bound radioactivity was determined by liquid scintillation spectrometry for 10 min per sample. Averaged data were fitted by regression with a rectangular hyperbola to estimate Ki value. All the compounds were independently assayed at least two times.

σ1 receptor = σ1 receptor (Cavia porcellus (Guinea pig), UniProt Q60492); assay: σ1 receptor binding, [3H](+)-Pentazocine; conditions: for Ki: oxalate form, homogenates of guinea pig brain, mean ± SEM; for Selectivity ratio VAChT/σ1: ratio of Ki values
Sequence of σ1 receptor (Q60492 whole entry): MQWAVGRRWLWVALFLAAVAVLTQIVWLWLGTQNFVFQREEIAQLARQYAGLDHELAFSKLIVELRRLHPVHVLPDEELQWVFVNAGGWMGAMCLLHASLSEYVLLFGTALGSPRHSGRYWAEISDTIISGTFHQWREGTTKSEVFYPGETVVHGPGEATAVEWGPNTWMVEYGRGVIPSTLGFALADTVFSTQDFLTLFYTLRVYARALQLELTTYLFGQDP
Method: as §1
(§2) Briefly, to measure the σ1 receptor binding affinity, we use guinea pig brain membrane homogenates (˜300 μg protein) tissues as the receptor resource and ˜5 nM [^3H](+)-Pentazocine (34.9 Ci/mmol, Perkin Elmer, Boston, Mass.) as the radioligand. The mixture was incubated in 96-well plates for 90 min at room temperature. Nonspecific binding was determined from samples containing 10 μM of nonradioactive Haloperidol. After 90 min, the mixture was transferred into a 96-well fiberglass filter plate (Millipore, Billerica, Mass.) presoaked with 100 μL of 50 mM Tris-HCl buffer at pH 8.0 for 60 min, followed by addition of 150 μL of ice-cold wash buffer (10 mM Tris-HCl, 150 mM NaCl, pH 7.4). The harvested samples were filtered rapidly and washed with 3×200 μL portions of ice-cold wash buffer, and the filterers were counted by a Wallac 1450 MicroBeta liquid scintillation counter (Perkin-Elmer, Boston, Mass.). […] The mixture was incubated for 120 min at room temperature. Nonspecific binding was determined from samples containing 10 μM of nonradioactive Haloperidol. All other procedures were similar to those described for the σ1 receptor binding assay above. Data from the competitive binding experiments were modeled using nonlinear regression analysis to determine the concentration that inhibits 50% of the specific binding of the radioligand. Competitive binding curves were best fit to a one-site fit and gave pseudo-Hill coefficients of 0.6-1.0. Ki values were calculated using the method of Cheng and Prusoff,^35 then presented as the mean±SEM.

σ2 receptor = σ2 receptor (Rattus norvegicus (Rat), UniProt Q5U3Y7); assay: σ2 receptor binding, [3H]DTG; conditions: for Ki: oxalate form, homogenates of rat liver; for Selectivity ratio VAChT/σ2: ratio of Ki values
Sequence of σ2 receptor (Q5U3Y7 whole entry): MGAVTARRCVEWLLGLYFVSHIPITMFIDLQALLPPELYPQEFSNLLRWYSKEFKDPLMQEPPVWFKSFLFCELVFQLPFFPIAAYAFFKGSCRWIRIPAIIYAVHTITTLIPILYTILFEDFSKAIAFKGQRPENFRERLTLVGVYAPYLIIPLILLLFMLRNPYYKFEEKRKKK
Method: In vitro binding studies were performed to measure the affinities to the VAChT and σ1 and σ2 receptors. […]
as §2

VAChT [1] = molecular target: VAChT (Rattus norvegicus (Rat), UniProt Q62666); assay: Ex vivo autoradiography of rat brain; assay type: in vivo, Sprague-Dawley rat
Sequence of VAChT (Rattus norvegicus (Rat), UniProt Q62666) (Q62666 whole entry): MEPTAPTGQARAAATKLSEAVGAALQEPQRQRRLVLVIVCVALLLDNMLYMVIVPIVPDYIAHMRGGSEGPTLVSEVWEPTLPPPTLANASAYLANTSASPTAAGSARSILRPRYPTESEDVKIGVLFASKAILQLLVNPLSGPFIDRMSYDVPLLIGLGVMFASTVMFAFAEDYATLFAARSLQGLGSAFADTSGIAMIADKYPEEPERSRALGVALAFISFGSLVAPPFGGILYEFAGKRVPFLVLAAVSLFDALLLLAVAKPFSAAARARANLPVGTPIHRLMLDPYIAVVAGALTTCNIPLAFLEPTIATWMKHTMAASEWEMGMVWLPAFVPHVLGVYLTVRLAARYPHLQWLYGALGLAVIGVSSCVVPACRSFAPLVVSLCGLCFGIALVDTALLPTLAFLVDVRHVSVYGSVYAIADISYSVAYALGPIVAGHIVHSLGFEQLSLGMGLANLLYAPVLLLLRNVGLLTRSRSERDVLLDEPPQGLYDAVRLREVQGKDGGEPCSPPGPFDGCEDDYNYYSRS
Method: Ex vivo autoradiography was performed on 6-8 month old male Sprague-Dawley rats to confirm the brain distribution of radiolabeled VAChT ligands. Mature male Sprague-Dawley rats were injected with ˜500 μCi of (−)-[^11C]3 or (−)-[^18F]9a via the tail vein under isoflurane/oxygen anesthesia, respectively. The rats were euthanized after 1 h and the brains were quickly removed and placed in a metal brain matrix with slots spaced at 1 mm intervals. The brains were then frozen in the matrix and sectioned into 100 μm coronal slices. Brain slices were carefully removed from the brain matrix razor blades and placed on a clear sheet covered with film and mounting on glass slides. Then, the brain sections were exposed to the film in an imaging cassette for 12 h before they were counted by the FLA7000. Photographic images were obtained using a flatbed scanner. […] There was also moderate uptake in other regions, which may be caused by the moderate binding activity to σ1 receptor. The quantification of autoradiography from entire 30 brain slices indicated the uptake ratio of radioactivity in striatum versus cerebellum reached 1.75 and 1.54, respectively. (FIGS. 6B and 6D)

VAChT [2] = conditions: cynomolgus monkey, in vivo
Method: PET studies were performed on adult male cynomolgus monkeys (6-8 kg) with a MicroPET Focus 220 scanner (Concorde/CTI/Siemens Microsystems, Knoxville, Tenn.). The animal was anesthetized using an intramuscular injection with ketamine (10-20 mg/kg) and glycopyrrolate (0.013-0.017 mg/kg) and then transported to the PET scanner suit. After arrival, the animal was intubated with an endotracheal tube and anesthesia was maintained at 0.75-2.0% isoflurane/oxygen throughout the procedure, and then a percutaneous venous catheter was placed for radiotracer injection. A heated water blanket was used to keep the temperature at 37° C. In each MicroPET scanning session, the head was positioned supine in the adjustable head holder with the brain in the center of the field of view. A 10-min transmission scan was performed to check positioning; once confirmed, a 45 min transmission scan was obtained for attenuation correction. Subsequently, a 2 h dynamic emission scan was acquired after administration of 296-410 MBq of (−)-[^11C]3 or (−)-[^18F]9a via the venous catheter. PET scans were collected from 0-120 min with the following time frames: 3×1 min, 4×2 min, 3×3 min and 20×5 min. PET image reconstructed resolution was <2.0 mm full width half maximum for all 3 dimensions at the center of the field of view. Emission data were corrected using individual attenuation and model-based scatter correction and reconstructed using filtered back projection. The first baseline PET image for each animal acted as the target image with the MPRAGE and subsequent PETs co-registered using automated image registration program AIR. All MPRAGE-based volume of interest (VOI) analyses were accomplished by experienced investigators. For quantitative analyses, three-dimensional ROIs (striatum, cerebellum, frontal cortex, occipital cortex, temporal, midbrain, hippocampus and thalamus) were transformed to the baseline PET space and then overlaid on all reconstructed PET images to obtain time-activity curves. Activity measures were standardized to body weight and dose of radioactivity injected to yield standardized uptake value (SUV).

[3] = Table 2, read-out: Ki (nM) VAChT
[4] = Table 1, read-out: Ki (nM) for VAChT

Sequence of human VAChT (Q16572 whole entry): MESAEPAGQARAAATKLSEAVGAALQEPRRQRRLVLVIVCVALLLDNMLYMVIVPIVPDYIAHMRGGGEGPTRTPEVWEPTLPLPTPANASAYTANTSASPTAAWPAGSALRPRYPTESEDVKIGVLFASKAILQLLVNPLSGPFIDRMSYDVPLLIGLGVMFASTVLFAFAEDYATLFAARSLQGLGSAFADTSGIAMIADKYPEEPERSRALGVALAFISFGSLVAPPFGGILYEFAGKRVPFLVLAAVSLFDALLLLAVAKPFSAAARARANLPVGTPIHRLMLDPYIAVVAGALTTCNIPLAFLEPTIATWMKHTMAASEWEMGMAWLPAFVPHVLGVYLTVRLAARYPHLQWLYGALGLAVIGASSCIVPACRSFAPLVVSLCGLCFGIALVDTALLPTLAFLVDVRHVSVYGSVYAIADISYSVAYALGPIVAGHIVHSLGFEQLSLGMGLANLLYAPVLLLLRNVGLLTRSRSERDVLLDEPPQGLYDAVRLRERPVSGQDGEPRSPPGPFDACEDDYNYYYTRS

SMILES | Ki (human VAChT; [3]) [nM] | Ki (σ1 receptor) [nM] | Selectivity ratio VAChT/σ1 (σ1 receptor) | Ki (σ2 receptor) [nM] | Selectivity ratio VAChT/σ2 (σ2 receptor) | Ki (human VAChT; [4]) [nM] | further results
O=C(c1ccc(SCCCF)cc1)C1CCN([C@@H]2Cc3ccccc3C[C@H]2O)CC1 (single isomer, unassigned) [(+)-9b] | 19.9 ± 9.2 | 38.6 ± 7.1 | 1.9 | > 1000 | >50 |  | 
CSc1ccc(C(=O)C2CCN(C3Cc4ccccc4CC3O)CC2)cc1 (single isomer, unassigned; (-)) [(−)-3] | 1.4 | 19 ± 5.6 | 13.6 | > 1000 | >714 |  | 
CSc1ccc(C(=O)C2CCN([C@@H]3Cc4ccccc4C[C@H]3O)CC2)cc1 (single isomer, unassigned) [(+)-3] | 13.8 ± 1.1 | 23.3 ± 2.9 | 1.7 | > 1000 | >72 |  | 
[11CH3]Sc1ccc(C(=O)C2CCN([C@@H]3Cc4ccccc4C[C@H]3O)CC2)cc1 (single isomer, unassigned) [(−)-[^11C]3] |  |  |  |  |  |  | uptake ratio of radioactivity in striatum versus cerebellum (VAChT [1]; 30 slices, 60 min post-injection, tail vein): 1.75; brain distribution of radioactivity (autoradiograms) (VAChT [1]; 1 h after injection): high accumulation in the VAChT enriched striatum; brain entry (VAChT [2]): able to enter the NHP brain; maximum standardized uptake value (SUV) in striatum (VAChT [2]): 4.0; regional brain accumulation (VAChT [2]): highest accumulation in the striatal region; time at which striatal SUV reached maximum (VAChT [2]): 10 min
O=C(c1ccc(SCCF)cc1)C1CCN(C2Cc3ccccc3CC2O)CC1 (racemic) [Compound 9a, (4-((2-Fluoroethyl)thio)phenyl)(1-(3-hydroxy-1,2,3,4-tetrahydronaphthalen-2-yl)piperidin-4-yl)methanone] |  | 16.7 ± 2.1 | 7.0 | > 1000 | >416 | 2.4 | 
O=C(c1ccc(SCCF)cc1)C1CCN([C@@H]2Cc3ccccc3C[C@H]2O)CC1 (single isomer, unassigned) [(+)-9a] | 11.8 ± 2.7 | 14.4 ± 2 | 1.2 | > 1000 | >84 |  | 
O=C(c1ccc(SCCF)cc1)C1CCN([C@@H]2Cc3ccccc3C[C@H]2O)CC1 (single isomer, unassigned) [(−)-[^18F]9a] |  |  |  |  |  |  | Ki (human VAChT; Table 2, listed as (−)-[18F]9a, read-out: Ki (nM) VAChT): 2.2 nM
O=C(c1ccc(S(=O)(=O)CCCF)cc1)C1CCN(C2Cc3ccccc3CC2O)CC1 (centres unmarked) [Compound 7, (4-((3-Fluoropropyl)sulfonyl)phenyl)(1-(3-hydroxy-1,2,3,4-tetrahydronaphthalen-2-yl)piperidin-4-yl)methanone] |  |  |  |  |  | 12.8 ± 0.7 | 
O=C(c1ccc(SCCCF)cc1)C1CCN(C2Cc3ccccc3CC2O)CC1 (racemic) [Compound 9b, (4-((3-Fluoropropyl)thio)phenyl)(1-(3-hydroxy-1,2,3,4-tetrahydronaphthalen-2-yl)piperidin-4-yl)methanone] |  | 40.8 ± 4.1 | 17.7 | > 1000 | >434 | 2.3 | 
O=C(c1ccc(SCCF)cc1)C1CCN(C2Cc3ccccc3CC2O)CC1 (single isomer, unassigned; (-)) [(−)-9a] | 2.2 | 30.8 ± 4.1 | 13.4 | > 1000 | >454 |  | 
CS(=O)(=O)c1ccc(C(=O)C2CCN([C@@H]3Cc4ccccc4C[C@H]3O)CC2)cc1 (single isomer, unassigned) [(+)-2] | 193 ± 17.8 | 18.5 ± 3.4 | 0.1 | > 1000 | >5 |  | 
CS(=O)(=O)c1ccc(C(=O)C2CCN(C3Cc4ccccc4CC3O)CC2)cc1 (single isomer, unassigned; (-)) [(−)-2] | 4.1 ± 0.9 | 34.7 ± 4.9 | 8.5 | > 1000 | >243 |  | 
CSc1ccc(C(=O)C2CCN(C3Cc4ccccc4CC3O)CC2)cc1 (racemic) [Compound 3, (1-(3-Hydroxy-1,2,3,4-tetrahydronaphthalen-2-yl)piperidin-4-yl)(4-(methylthio)phenyl)methanone] |  | 17.2 ± 4 | 7.2 | > 1000 | >416 | 2.4 | 
O=C(c1ccc(SCCCF)cc1)C1CCN(C2Cc3ccccc3CC2O)CC1 (single isomer, unassigned; (-)) [(−)-9b] | 1.4 | 4.1 ± 0.7 | 2.9 | > 1000 | >714 |  | 
O=C(c1ccc(S(=O)(=O)NCCF)cc1)C1CCN(C2Cc3ccccc3CC2O)CC1 (centres unmarked) [Compound 6b, N-(2-fluoroethyl)-4-(1-(3-hydroxy-1,2,3,4-tetrahydronaphthalen-2-yl)piperidine-4-carbonyl)benzenesulfonamide] |  |  |  |  |  | 13 | 
CS(=O)(=O)c1ccc(C(=O)C2CCN(C3Cc4ccccc4CC3O)CC2)cc1 (racemic) [Compound 2, (1-(3-Hydroxy-1,2,3,4-tetrahydronaphthalen-2-yl)piperidin-4-yl)(4 (methylsulfonyl)phenyl)methanone] |  | 16.5 ± 2.1 | 3.1 | > 1000 | >185 | 5.4 | 
C[S+]([O-])c1ccc(C(=O)C2CCN(C3Cc4ccccc4CC3O)CC2)cc1 (centres unmarked) [Compound 4, (1-(3-Hydroxy-1,2,3,4-tetrahydronaphthalen-2-yl)piperidin-4-yl)(4-(methylsulfinyl)phenyl)methano-ne] |  |  |  |  |  | 6.5 | 
CNS(=O)(=O)c1ccc(C(=O)C2CCN(C3Cc4ccccc4CC3O)CC2)cc1 (centres unmarked) [Compound 6a, 4-(1-(3-Hydroxy-1,2,3,4-tetrahydronaphthalen-2-yl)piperidine-4-carbonyl)-N-methylbenzenesulfon-amide] |  |  |  |  |  | 6.3 | 
